Test results: PMC3838641 (Biochemistry, 2013)

Key:
[1] = biological target: T1, orotidine 5'-monophosphate decarboxylase (ScOMPDC) (Saccharomyces cerevisiae, UniProt P03962, R235A); assay: UV decarboxylation kinetics of truncated substrate; format: biochemical
T1 sequence (P03962 2-267 R235A): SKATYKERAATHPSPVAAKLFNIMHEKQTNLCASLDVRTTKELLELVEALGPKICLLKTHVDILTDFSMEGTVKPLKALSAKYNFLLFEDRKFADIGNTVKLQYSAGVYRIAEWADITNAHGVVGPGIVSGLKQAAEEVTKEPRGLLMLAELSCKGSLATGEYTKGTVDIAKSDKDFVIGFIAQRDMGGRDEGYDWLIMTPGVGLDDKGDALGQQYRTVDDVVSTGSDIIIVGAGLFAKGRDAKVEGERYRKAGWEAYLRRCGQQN

[2] = biological target: T1, orotidine 5'-monophosphate decarboxylase (ScOMPDC)
[3] = biological target: T1, orotidine 5'-monophosphate decarboxylase (ScOMPDC); assay: […] NMR deuterium exchange kinetics with purified enzyme, Michaelis-Menten fit; format: biochemical

O=C(O)c1c(F)c(=O)[nH]c(=O)n1[C@@H]1OC[C@@H](O)[C@H]1O [FEO, 1-(β-D-erythrofuranosyl)-5-fluoroorotic acid]
FEO + HPO3^2- / (kcat/Km)E [1]: 12 M⁻¹ s⁻¹

O=[PH](O)O [HPO3^2−, phosphite dianion]
FEO + HPO3^2- / (kcat/Km)E•HPi/Kd (M^-2 s^-1) [2]: 250 ± 15 M^−2 s^−1

O=c1[nH]c(=O)n([C@@H]2O[C@H](COP(=O)(O)O)[C@@H](O)[C@H]2O)cc1F [h-FUMP, 5-fluorouridine 5'-monophosphate]
Kd [3]: 5 mM
